Data as given in US20070032529A1, “Pyrazole compounds and their use as antidiabetes agents” (Japan Tobacco Inc., priority 2005, published 2007).

Legend:
db/db mice = assay: Measuring blood plasma glucose concentration in db/db mice (hypoglycemic effect); assay type: in vivo; design: key: ++: compounds exhibiting statistically significant hypoglycemic effect at a dose of 10 mg/kg or less; +: compounds exhibiting not significant but obvious hypoglycemic effect at a dose of 10 mg/kg; settings: for vivo (hypoglycemic effect in db/db mice): db/db mice fasted 4 h, oral administration, plasma glucose 1 and 3 hours after administration, dose 10 mg/kg or less, Dunnett test vs solvent; for vivo (hypoglycemic effect): db/db mice, blood plasma glucose, dose of 10 mg/kg or less
Summary of the method: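 db/db mice aged 9-18 weeks, grouped 5 or 8 per group matched on plasma glucose, fasted 4 h, then dosed orally with compound or 0.5% methylcellulose vehicle. Plasma glucose measured 1 and 3 h post-dose; each timepoint compared against vehicle by Dunnett test.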

[1] = biological target: T1, recombinant human liver glycogen phosphorylase (Homo sapiens, UniProt P06737); assay: Measuring liver glycogen phosphorylase activity (forward reaction system, NADPH absorbance at 340 nm); assay type: biochemical
T1 construct: made in house; host or cells: Sf9 insect cells (crude homogenate, diluted, used as the enzyme solution)
T1 sequence (P06737 1-847): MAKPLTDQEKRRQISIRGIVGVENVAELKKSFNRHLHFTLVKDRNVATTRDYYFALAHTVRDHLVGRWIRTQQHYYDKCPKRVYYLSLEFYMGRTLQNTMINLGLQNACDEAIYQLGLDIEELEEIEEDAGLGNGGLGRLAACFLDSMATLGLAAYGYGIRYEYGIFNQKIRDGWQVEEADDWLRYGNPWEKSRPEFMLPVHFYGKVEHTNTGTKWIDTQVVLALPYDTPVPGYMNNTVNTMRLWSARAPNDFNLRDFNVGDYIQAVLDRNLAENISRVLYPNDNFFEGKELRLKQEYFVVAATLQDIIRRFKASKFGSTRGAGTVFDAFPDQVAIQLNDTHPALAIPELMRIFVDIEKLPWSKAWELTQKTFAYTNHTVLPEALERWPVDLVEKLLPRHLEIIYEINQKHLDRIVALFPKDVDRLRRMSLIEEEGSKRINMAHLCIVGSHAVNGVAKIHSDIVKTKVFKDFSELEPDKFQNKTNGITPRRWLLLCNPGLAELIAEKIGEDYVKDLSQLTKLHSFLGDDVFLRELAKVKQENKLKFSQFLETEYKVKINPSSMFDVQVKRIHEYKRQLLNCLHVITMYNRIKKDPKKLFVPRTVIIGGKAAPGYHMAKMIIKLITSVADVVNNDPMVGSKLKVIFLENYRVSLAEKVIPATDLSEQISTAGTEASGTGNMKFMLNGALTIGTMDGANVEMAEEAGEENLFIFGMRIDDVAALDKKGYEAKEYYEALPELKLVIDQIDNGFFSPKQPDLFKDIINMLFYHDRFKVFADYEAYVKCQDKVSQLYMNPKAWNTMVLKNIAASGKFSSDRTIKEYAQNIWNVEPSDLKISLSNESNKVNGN
Summary of the method: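 Sf9 homogenate expressing the enzyme, in pH 6.8 BES/EDTA, with glycogen and phosphate substrate plus glucose, coupled via phosphoglucomutase/G6PDH to NADPH formation. A340 change over 75 min at room temperature, blank-corrected; IC50 linearly interpolated between the two concentrations bracketing 50% inhibition versus 1% DMSO control.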

[2] = enzyme inhibitory activity with respect to liver glycogen phosphorylase, class symbols
[3] = human liver glycogen phosphorylase, class symbol

IC50 [1, 2] | SMILES | vivo (hypoglycemic effect in db/db mice) (db/db mice) | vivo (hypoglycemic effect) (db/db mice) | other results
< 100 nM | COc1ccc(CNC(=O)c2cc(NC(=O)c3cc(F)c(F)cc3Cl)[nH]n2)c(OC)n1 [Example 3-46] | + | – | –
< 100 nM | CN(C(=O)c1cc(NC(=O)c2cc(F)c(F)cc2Cl)[nH]n1)c1ccc(C(=O)O)cc1 [Example 4-2, 5-(2-chloro-4,5-difluoro-benzoylamino)-1H-pyrazole-3-carboxylic acid (4-carboxyphenyl)-methyl-amide] | ++ | – | –
< 100 nM | CCOC(=O)CN(C(=O)c1cc(NC(=O)c2cc(F)c(F)cc2Cl)[nH]n1)c1ccccc1 [Example 4-4] | + | – | –
< 100 nM | O=C(Nc1cc(C(=O)N(Cc2ccccc2)c2ccccc2)n[nH]1)c1cc(F)c(F)cc1Cl [Example 4-9] | + | – | –
< 100 nM | CCOCCN(C(=O)c1cc(NC(=O)c2cc(F)c(F)cc2Cl)[nH]n1)c1ccccc1 [Example 4-18] | + | – | –
< 100 nM | CCNC(=O)CN(C(=O)c1cc(NC(=O)c2cc(F)c(F)cc2Cl)[nH]n1)c1ccccc1 [Example 4-23] | + | – | –
< 100 nM | COCCN(C(=O)c1cc(NC(=O)c2cc(F)c(F)cc2Cl)[nH]n1)c1ccccc1 [Example 4-34] | + | – | –
< 100 nM | CCCCN(C(=O)c1cc(NC(=O)c2cc(F)c(F)cc2Cl)[nH]n1)c1ccc(C(=O)O)cc1 [Example 4-41] | + | – | –
< 100 nM | CCCCN(C(=O)c1cc(NC(=O)c2cc(F)c(F)cc2Cl)[nH]n1)c1ccc(CC(=O)O)cc1 [Example 4-46] | + | – | –
< 100 nM | COCCN(C(=O)c1cc(NC(=O)c2cc(F)c(F)cc2Cl)[nH]n1)c1ccc(C(=O)O)cc1 [Example 4-48] | ++ | – | –
< 100 nM | COc1ccc(CNC(=O)c2cc(NC(=O)c3cc(F)c(F)cc3Cl)[nH]n2)cn1 [Example 5-1] | – | – | vivo (hypoglycemic effect in db/db mice) (db/db mice; 10 mg/kg): +
< 100 nM | COc1ccc(CNC(=O)c2cc(NC(=O)c3cc(F)c(F)cc3C)[nH]n2)cn1 [Example 5-2] | + | – | –
< 100 nM | O=C(NN1CCOCC1)c1cccc(CNC(=O)c2cc(NC(=O)c3cc(F)c(F)cc3Cl)[nH]n2)c1 [Example 5-12] | + | – | –
< 100 nM | O=C(NCCN1CCOCC1)c1cc(CNC(=O)c2cc(NC(=O)c3cc(F)c(F)cc3Cl)[nH]n2)ccn1 [Example 5-13] | + | – | –
< 100 nM | O=C(NCc1ccnc(C(=O)NN2CCOCC2)c1)c1cc(NC(=O)c2cc(F)c(F)cc2Cl)[nH]n1 [Example 5-14] | + | – | –
< 100 nM | COc1ccc(CNC(=O)c2cc(NC(=O)c3cc(F)c(F)cc3Cl)[nH]n2)cn1.CS(=O)(=O)O [Example 5-15] | + | – | –
< 100 nM | COc1ccc(CNC(=O)c2cc(NC(=O)c3cc(F)c(F)cc3Cl)[nH]n2)cn1 [Example 5-16] | – | – | vivo (hypoglycemic effect in db/db mice) (db/db mice; 10 mg/kg): +
< 100 nM | O=C(NCc1ccc(N2CCCCC2)nc1)c1cc(NC(=O)c2cc(F)c(F)cc2Cl)[nH]n1 [Example 5-24] | ++ | – | –
< 100 nM | Cl.O=C(NCc1ccc(N2CCOCC2)nc1)c1cc(NC(=O)c2cc(F)c(F)cc2Cl)[nH]n1 [Example 5-25] | ++ | – | –

IC50 [1, 2] | SMILES | vivo (hypoglycemic effect in db/db mice) (db/db mice) | vivo (hypoglycemic effect) (db/db mice) | other results
< 100 nM | CN(C)c1ccc(CNC(=O)c2cc(NC(=O)c3cc(F)c(F)cc3Cl)[nH]n2)cn1 [Example 5-27] | – | – | vivo (hypoglycemic effect in db/db mice) (db/db mice; 10 mg/kg): ++
< 100 nM | CCN(CC)c1ccc(CNC(=O)c2cc(NC(=O)c3cc(F)c(F)cc3Cl)[nH]n2)cn1 [Example 5-29] | ++ | – | –
< 100 nM | CN(C)c1nc(Cl)ccc1CNC(=O)c1cc(NC(=O)c2cc(F)c(F)cc2Cl)[nH]n1 [Example 5-30] | + | – | –
< 100 nM | Cc1ncsc1CNC(=O)c1cc(NC(=O)c2cc(F)c(F)cc2Cl)[nH]n1.Cl [Example 5-32] | + | – | –
< 100 nM | Cc1nc(C)c(CNC(=O)c2cc(NC(=O)c3cc(F)c(F)cc3Cl)[nH]n2)s1.Cl [Example 5-33] | + | – | –
< 100 nM | Cc1cnc(CNC(=O)c2cc(NC(=O)c3cc(F)c(F)cc3Cl)[nH]n2)cn1 [Example 5-35] | + | – | –
< 100 nM | O=C(NCc1ccc(N2CCCC2)nc1)c1cc(NC(=O)c2cc(F)c(F)cc2Cl)[nH]n1 [Example 5-41] | + | – | –
– | CN(C(=O)c1cc(NC(=O)c2cc(F)c(F)cc2Cl)[nH]n1)c1ccc(-c2nc(=O)o[nH]2)cc1 [Example 6-12] | – | + | IC50 [1, 3]: < 100 nM
– | CN(C(=O)c1cc(NC(=O)c2cc(F)c(F)cc2Cl)[nH]n1)c1ccc(-c2nsc(=O)[nH]2)cc1 [Example 6-16] | – | + | IC50 [1, 3]: < 100 nM
– | CC(OC(=O)OC1CCCCC1)OC(=O)c1ccc(N(C)C(=O)c2cc(NC(=O)c3cc(F)c(F)cc3Cl)[nH]n2)cc1 (stereo not shown) [Example 6-17] | – | + | inhibition at 0.1 µM ([1]; figure in brackets (100), read-out: IC50: % value given with (100)): 9.8%
– | CN(C)C=Nc1ccccc1CNC(=O)c1cc(NC(=O)c2cc(F)c(F)cc2Cl)[nH]n1.Cl [Example 6-21] | – | ++ | IC50 [1, 3]: < 100 nM
– | CN(C)C=Nc1cccc(CNC(=O)c2cc(NC(=O)c3cc(F)c(F)cc3Cl)[nH]n2)c1.Cl [Example 6-22] | – | + | IC50 [1, 3]: < 100 nM
– | CN(C)C=Nc1ccc(CNC(=O)c2cc(NC(=O)c3cc(F)c(F)cc3Cl)[nH]n2)cc1.Cl [Example 6-23] | – | + | IC50 [1, 3]: < 100 nM
– | N#Cc1ccc(CNC(=O)c2cc(NC(=O)c3cc(F)c(F)cc3Cl)[nH]n2)cc1 [Example 6-33] | – | + | IC50 [1, 3]: < 100 nM
– | Cl.Nc1cccc(F)c1CNC(=O)c1cc(NC(=O)c2cc(F)c(F)cc2Cl)[nH]n1 [Example 6-39] | – | + | IC50 [1, 3]: < 100 nM
– | N#Cc1cc(CNC(=O)c2cc(NC(=O)c3cc(F)c(F)cc3Cl)[nH]n2)ccn1 [Example 6-48] | – | ++ | IC50 [1, 3]: < 100 nM
– | Cc1cc(F)c(F)cc1C(=O)Nc1cc(C(=O)N(C)c2ccc(C(=O)[O-])cc2)n[nH]1.[Na+] [Example 7-1] | – | + | IC50 [1, 3]: < 100 nM
– | O=C(NCc1cccnc1)c1cc(NC(=O)c2cc(F)c(Cl)cc2Cl)[nH]n1 [Example 7-4] | – | ++ | IC50 [1, 3]: < 100 nM
– | Cc1cc(F)c(F)cc1C(=O)Nc1cc(C(=O)NCc2cccnc2)n[nH]1 [Example 7-10] | – | ++ | IC50 [1, 3]: < 100 nM
